Experimental data as given in PubChem BioAssay (NCI).
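Each compound was tested at five concentrations against cells in 96-well plates for 48 hours. Here, GI50 denotes the concentration required for 50% inhibition of growth. TGI denotes the concentration required for complete inhibition of growth.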

Experiments:
Assay in all cases: DTP human tumour cell line panel, 48 h
[1] = tested on: UACC-257 melanoma
[2] = tested on: SF-539 CNS
[3] = tested on: MALME-3M melanoma
[4] = tested on: NCI-H522 lung
[5] = tested on: CCRF-CEM leukemia
[6] = tested on: OVCAR-8 ovarian
[7] = tested on: RXF 393 renal
[8] = tested on: NCI-H460 lung
[9] = tested on: HOP-62 NSCLC
[10] = tested on: K-562 leukemia

`Fc1c(F)c(C(F)(F)F)c(F)c(F)c1N/N=C/c1cn(Cc2ccccc2)c2ccccc12` was tested, and the TGI [1] was 54 µM, the TGI [2] was 42.1 µM and the TGI [3] was over 100 µM. It also gave a TGI [4] of 70.1 µM, a TGI [5] of 48.4 µM and a TGI [6] of over 100 µM. It also gave a TGI [7] of 41.5 µM, a TGI [8] of 27.9 µM and a TGI [9] of 22.4 µM. It also gave a TGI [10] of 87.1 µM.

Work on `COc1cc2c(cc1OCCCN1CCN(c3ncnc4ccccc34)CC1)N=CC1CCCN1C2=O` (stereo unspecified) yielded a GI50 [1] of 0.15 µM, a TGI [1] of 0.737 µM and a GI50 [2] of 0.0271 µM. The TGI [2] was 0.0696 µM, the GI50 [3] was 0.0198 µM and the TGI [3] was 0.0479 µM. The TGI [4] was 0.0285 µM, the GI50 [5] was under 0.0146 µM and the TGI [5] was 0.48 µM. The GI50 [6] was 0.043 µM, the TGI [6] was over 53.6 µM and the GI50 [7] was 0.0205 µM. It also gave a TGI [7] of 0.0394 µM, a GI50 [8] of 0.0282 µM and a TGI [8] of 0.298 µM. The GI50 [9] was 0.0282 µM, the TGI [9] was 0.278 µM and the GI50 [10] was 0.0262 µM.

Molecule `C[C@]12CCC(=O)C=C1CC[C@@H]1[C@@H]2[C@@H](O)C[C@@]2(C)[C@H]1CC[C@]2(O)C(=O)COC(=O)C1CCCC1` has a TGI [1] of over 100 µM, a TGI [2] of over 100 µM and a TGI [3] of over 100 µM. The TGI [4] was over 100 µM, the TGI [5] was over 100 µM and the TGI [6] was over 100 µM. For the same molecule, the TGI [7] was over 100 µM, the TGI [8] was over 100 µM and the TGI [9] was over 100 µM. The TGI [10] was over 100 µM.

With `COc1ccc2c(c1)CC[C@@H]1[C@@H]2CC[C@]2(C)C(=O)/C(=C/c3ccc(O)c(OC)c3)C[C@@H]12` the TGI [1] was over 100 µM, the TGI [5] was over 100 µM and the TGI [6] was over 100 µM. It also gave a TGI [7] of over 100 µM, a TGI [8] of over 100 µM and a TGI [9] of over 100 µM. The TGI [10] was over 100 µM.

With `COc1ccc(C2C(C=O)C(N3CCN(C)CC3)=Nc3nc4ccccc4n32)cc1` (stereo unspecified) the TGI [1] was 41 µM, the TGI [2] was 54.5 µM and the TGI [3] was 26.3 µM. For the same molecule, the TGI [4] was 25.6 µM, the TGI [5] was 17.8 µM and the TGI [6] was 33.1 µM. It also gave a TGI [7] of 39.2 µM, a TGI [8] of 91.1 µM and a TGI [9] of 28.7 µM. The TGI [10] was 14.9 µM.

In the case of `O=C(c1cccs1)N(Cc1cccnc1)C(=S)N(Cc1cccnc1)C(=O)c1cccs1`, the TGI [1] is reported as over 100 µM, the TGI [2] is reported as 88.7 µM and the TGI [3] is reported as over 100 µM. It also gave a TGI [4] of over 100 µM, a TGI [5] of over 100 µM and a TGI [6] of over 100 µM. It also gave a TGI [7] of over 100 µM, a TGI [8] of over 100 µM and a TGI [9] of over 100 µM. For the same molecule, the TGI [10] was over 100 µM.

Molecule `NC(CC(=O)O)(Cc1ccccc1)C(=O)O` (stereo unspecified) has a TGI [1] of over 100 µM, a TGI [2] of over 100 µM and a TGI [3] of over 100 µM. For the same molecule, the TGI [4] was over 100 µM, the TGI [5] was over 100 µM and the TGI [6] was over 100 µM. It also gave a TGI [7] of over 100 µM, a TGI [8] of over 100 µM and a TGI [9] of over 100 µM. For the same molecule, the TGI [10] was over 100 µM.

`Cn1c(=O)c2c(nc(NCCNc3nc4c(c(=O)n(C)c(=O)n4C)n3C)n2C)n(C)c1=O` was tested, and the TGI [1] was over 100 µM, the TGI [3] was over 100 µM and the TGI [4] was over 100 µM. It also gave a TGI [5] of over 100 µM, a TGI [6] of over 100 µM and a TGI [7] of over 100 µM. The TGI [8] was over 100 µM, the TGI [9] was over 100 µM and the TGI [10] was over 100 µM.

`COc1ccc(C2=NN(C(=O)c3cccnc3)C(O)(c3cc(F)c(Cl)cc3Cl)C2)cc1OC` (stereo unspecified) gave a TGI [1] of 34.2 µM, a TGI [2] of 33.5 µM and a TGI [3] of 59.1 µM. For the same molecule, the TGI [4] was 34.9 µM, the TGI [5] was over 100 µM and the TGI [6] was 35.7 µM. It also gave a TGI [7] of 33.5 µM, a TGI [8] of 38.3 µM and a TGI [9] of 47.7 µM. For the same molecule, the TGI [10] was 69 µM.

Molecule `Nc1nc(=O)n(CC(O)CO)s1` (stereo unspecified) has a TGI [1] of over 100 µM, a TGI [2] of over 100 µM and a TGI [3] of over 100 µM. For the same molecule, the TGI [5] was over 100 µM, the TGI [6] was over 100 µM and the TGI [7] was over 100 µM. It also gave a TGI [8] of over 100 µM, a TGI [9] of over 100 µM and a TGI [10] of over 100 µM.

Work on `O=C(NNC(=O)c1nsc2ccccc12)c1ccc(Cl)cc1` yielded a TGI [1] of 48.2 µM, a TGI [2] of 41.9 µM and a TGI [5] of 38.1 µM. The TGI [6] was 72.8 µM, the TGI [7] was 30.3 µM and the TGI [8] was over 100 µM. For the same molecule, the TGI [9] was 33.7 µM and the TGI [10] was 35.1 µM.

`Cc1ccc(SSCCCCCS(=O)O)cc1` gave a TGI [1] of over 100 µM, a TGI [2] of 30.3 µM and a TGI [3] of over 100 µM. The TGI [4] was 27.9 µM, the TGI [5] was over 100 µM and the TGI [7] was 43.3 µM. For the same molecule, the TGI [8] was over 100 µM, the TGI [9] was 56.4 µM and the TGI [10] was over 100 µM.

Molecule `COc1ccc2nc3ccccc3c(NCc3ccc(C)cc3)c2c1` has a GI50 [1] of 2.12 µM, a TGI [1] of 5 µM and a GI50 [2] of 1.68 µM. It also gave a TGI [2] of 3.18 µM, a GI50 [3] of 1.81 µM and a TGI [3] of 3.29 µM. The GI50 [4] was 1.94 µM, the TGI [4] was 4.67 µM and the GI50 [5] was 2.37 µM. The TGI [5] was 11.4 µM, the GI50 [6] was 2.24 µM and the TGI [6] was 7.27 µM. The GI50 [7] was 1.32 µM, the TGI [7] was 2.83 µM and the GI50 [8] was 1.97 µM. The TGI [8] was 4.15 µM, the GI50 [9] was 1.78 µM and the TGI [9] was 3.7 µM. For the same molecule, the GI50 [10] was 1.61 µM and the TGI [10] was over 100 µM.

Molecule `COc1ccc(C)cc1Nc1nnc(-c2ccc(N)cc2)s1` has a TGI [1] of over 100 µM, a TGI [2] of over 100 µM and a TGI [3] of over 100 µM. For the same molecule, the TGI [4] was over 100 µM, the TGI [5] was over 100 µM and the TGI [6] was over 100 µM. It also gave a TGI [7] of over 100 µM, a TGI [8] of over 100 µM and a TGI [9] of over 100 µM. The TGI [10] was over 100 µM.

`O=C(COc1ccc(Cl)cc1Cl)N/N=C/C=C/c1ccc([N+](=O)[O-])o1` showed a TGI [2] of over 100 µM, a TGI [3] of 6.65 µM and a TGI [4] of 2.83 µM. The TGI [5] was 15.2 µM, the TGI [6] was 76.6 µM and the TGI [7] was 59.8 µM. For the same molecule, the TGI [8] was over 100 µM, the TGI [9] was 54.4 µM and the TGI [10] was over 100 µM.

In the case of `N#C[S-].[Ce+3].c1cnc2c(c1)ccc1cccnc12.c1cnc2c(c1)ccc1cccnc12.c1cnc2c(c1)ccc1cccnc12`, the TGI [1] is reported as 18.9 µM, the TGI [2] is reported as 16 µM and the TGI [3] is reported as 8.84 µM. It also gave a TGI [4] of 21.1 µM, a TGI [6] of 17.5 µM and a TGI [9] of 35.7 µM. It also gave a TGI [10] of over 100 µM.

With `CC(=O)C1=C(O)CCC1=O` the TGI [1] was over 100 µM, the TGI [2] was over 100 µM and the TGI [3] was over 100 µM. The TGI [4] was over 100 µM, the TGI [5] was over 100 µM and the TGI [6] was over 100 µM. It also gave a TGI [7] of over 100 µM, a TGI [8] of over 100 µM and a TGI [9] of over 100 µM. For the same molecule, the TGI [10] was over 100 µM.

`CCOC(=O)c1c(CN2CCCC2)n(-c2ccccc2)c2cc(Br)c(OC)cc12` was tested, and the TGI [1] was 28.6 µM, the TGI [2] was 72.6 µM and the TGI [3] was 30.4 µM. It also gave a TGI [4] of 31.6 µM, a TGI [5] of 30.6 µM and a TGI [6] of over 100 µM. The TGI [7] was 17.5 µM, the TGI [8] was 35.3 µM and the TGI [9] was 22.5 µM. It also gave a TGI [10] of 43.3 µM.

For `COc1cc2c(cc1OC)-c1cc3ccc(OC)c(OC)c3c[n+]1CC2`, the TGI [1] was over 100 µM, the TGI [2] was over 100 µM and the TGI [3] was over 100 µM. The TGI [4] was over 100 µM, the TGI [5] was over 100 µM and the TGI [6] was over 100 µM. For the same molecule, the TGI [7] was over 100 µM, the TGI [8] was over 100 µM and the TGI [9] was over 100 µM. It also gave a TGI [10] of over 100 µM.
